PubChem BioAssay (NCI)
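How tested: cells in 96-well plates exposed to compound for 48 hours at five concentrations. GI50 = concentration required for 50% inhibition of growth. Definition used: TGI = concentration required for complete inhibition of growth.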 Where a SMILES comes first, the peptide text is derived from it. [ ]: non-standard residue; d: D form. The star is where a group is joined. Phe(4-NO2) = N[CH](Cc1ccc([N+](=O)[O-])cc1)C(=O)O; Boc = CC(C)(C)OC(=O)*

Experiments:
Test in all cases: NCI tumour cell line growth inhibition, 48 h
[1] = tested on: HCC-2998 colon
[2] = tested on: TK-10 renal
[3] = tested on: MOLT-4 leukemia
[4] = tested on: SK-MEL-28 melanoma
[5] = tested on: M14 melanoma
[6] = tested on: A549 NSCLC
[7] = tested on: ACHN renal
[8] = tested on: KM12 colon
[9] = tested on: BT-549 breast
[10] = tested on: LOX IMVI melanoma

Structure (SMILES) | TGI [1] [µM] | TGI [2] [µM] | TGI [3] [µM] | TGI [4] [µM] | TGI [5] [µM] | TGI [6] [µM] | TGI [7] [µM] | TGI [8] [µM] | TGI [9] [µM] | TGI [10] [µM] | GI50 [10] [µM] | GI50 [1] [µM] | GI50 [2] [µM] | GI50 [3] [µM] | GI50 [4] [µM] | GI50 [5] [µM] | GI50 [6] [µM] | GI50 [7] [µM] | GI50 [8] [µM]
O=c1[nH]cc(N=Cc2cc(Cl)ccc2O)c(=O)[nH]1 | > 100 | > 100 | 63.1 | 70.1 | 48.9 | > 100 | 61.6 | > 100 | 70 | – | – | – | – | – | – | – | – | – | –
Cc1ccc(-n2nncc2[Si](C)(C)C)s1 | > 100 | > 100 | – | > 100 | > 100 | > 100 | > 100 | – | > 100 | > 100 | – | – | – | – | – | – | – | – | –
COc1ccc(-n2c(N)c(C#N)c(C#N)c2-c2ccco2)cc1 | > 100 | > 100 | > 100 | – | > 100 | > 100 | > 100 | > 100 | > 100 | > 100 | – | – | – | – | – | – | – | – | –
O=C1CCCCC/C1=C\c1cccc(F)c1 | > 100 | > 100 | > 100 | > 100 | > 100 | > 100 | > 100 | > 100 | > 100 | – | – | – | – | – | – | – | – | – | –
CC(=O)/C=C/c1ccccc1 | > 100 | > 100 | > 100 | > 100 | 85 | > 100 | > 100 | 97.9 | – | – | – | – | – | – | – | – | – | – | –
COc1c(C)c(C/C=C(\C)CCCC(C)CCCC(C)CCCC(C)C)c(OC)c2ccccc12 (stereo not drawn) | > 100 | > 100 | > 100 | – | > 100 | > 100 | > 100 | > 100 | > 100 | > 100 | – | – | – | – | – | – | – | – | –
C/C(=N\Nc1nc2ccccc2[nH]1)c1ncccn1 | > 100 | > 78.1 | > 100 | – | 0.322 | > 93 | 0.201 | > 46.9 | > 100 | > 100 | – | – | – | – | – | – | – | – | –
N/N=C(/N)SCCCCCCCCCCS/C(N)=N/N | 59.6 | > 100 | – | > 100 | > 100 | 50.3 | 67.4 | 67.3 | 68.7 | 23.7 | – | – | – | – | – | – | – | – | –
O=C1c2ccccc2C2(c3ccc(F)cc3)NCCN12 (stereo not drawn) | > 100 | > 100 | > 100 | > 100 | > 100 | > 100 | > 100 | > 100 | > 100 | – | – | – | – | – | – | – | – | – | –
O=C(Nc1ccc(-n2cc(-c3ccncc3)c(-c3ccc(O)c(Cl)c3)n2)cc1)c1ccc(Cl)c(C(F)(F)F)c1 | > 50 | 18.1 | 34.2 | > 50 | 2.08 | > 50 | 13.3 | > 50 | – | 6.88 | 1.12 | 2.82 | 1.72 | 1.69 | 3.61 | 0.946 | 2.09 | 1.8 | 1.93
Cn1c2ccccc2n2c3ncccc3c(=O)cc12 | – | > 100 | > 100 | > 100 | > 100 | > 100 | > 100 | > 100 | > 100 | > 100 | – | – | – | – | – | – | – | – | –
Cc1nc2ccc(Cl)cc2c2c1CCO2 | > 100 | > 100 | > 100 | > 100 | – | > 100 | > 100 | > 100 | > 100 | > 100 | – | – | – | – | – | – | – | – | –
Oc1c(Cl)cc2cc1-c1cc(cc(Cl)c1O)CCc1c(cc(Cl)c(O)c1Cl)-c1cc(Cl)c(c(Cl)c1O)/C=C\2 | 13.9 | – | > 50 | 19.3 | 15.6 | 23.9 | 29.7 | 15.1 | > 50 | 20 | – | – | – | – | – | – | – | – | –
CCOC(=O)CCc1cn2cc(Br)nc(OC)c2n1 | > 100 | > 100 | > 100 | > 100 | > 100 | > 100 | – | > 100 | > 100 | > 100 | – | – | – | – | – | – | – | – | –
COc1cc(S(=O)(=O)Nc2ccc(-c3csc(N4C(=O)C(Cl)C4c4ccccc4O)n3)cc2)ccc1Cl (stereo not drawn) | 38.5 | – | 41.7 | > 100 | > 100 | > 100 | > 100 | > 100 | > 100 | 3.56 | – | – | – | – | – | – | – | – | –
CCOC(=O)CCC(NC(=O)C(Cc1ccc([N+](=O)[O-])cc1)NC(=O)OC(C)(C)C)C(=O)NC(CCC(=O)OCC)C(=O)OCC (stereo not drawn) (Boc-[Phe(4-NO2)]-Glu(OEt)-Glu(OEt)-OEt; configuration not given here) | 30.9 | 30.1 | 6.62 | 32.1 | 35.9 | > 100 | 31.1 | 28.1 | 45.1 | – | – | – | – | – | – | – | – | – | –
COc1cccc2c1OC1c3ccccc3OCC1(O)C2 (stereo not drawn) | > 100 | > 100 | > 100 | – | > 100 | > 100 | > 100 | > 100 | > 100 | > 100 | – | – | – | – | – | – | – | – | –
Cc1cc(C)nc(NS(=O)(=O)c2ccc(NNc3c4ccccc4nc4c(C(=O)Nc5ccc(S(=O)(=O)Nc6cc(C)on6)cc5)cccc34)cc2)n1 | 50.2 | > 100 | 82.2 | – | > 100 | > 100 | > 100 | > 100 | > 100 | 88.8 | – | – | – | – | – | – | – | – | –
C/C(=C\Cc1ccc(F)cc1)CCCCCC/C(C)=C/Cc1ccc(F)cc1 | – | 29.5 | 47.6 | – | 45.6 | 31.7 | 24.8 | 5.61 | 79 | 19.9 | – | – | – | – | – | – | – | – | –
Nc1ccc2c(=O)cc(-c3ccc(Br)s3)[nH]c2n1 | 29.7 | > 100 | 13.2 | > 100 | 45.3 | > 44.8 | > 100 | > 100 | – | > 100 | – | – | – | – | – | – | – | – | –
Oc1ccc2ccccc2c1OCc1nnc(CCCCCCCCc2nnc(COc3c(O)ccc4ccccc34)n2Nc2ccccc2)n1Nc1ccccc1 | 31 | > 100 | > 100 | > 87.7 | 44.7 | > 100 | > 100 | 33 | 77.7 | – | – | – | – | – | – | – | – | – | –
C=C(Br)C[N+]12CN3CN(CN(C3)C1)C2 | > 100 | – | > 100 | > 100 | > 100 | > 100 | > 100 | > 100 | – | > 100 | – | – | – | – | – | – | – | – | –
